Measured values: PubChem BioAssay AID2060893 (Molecular Pharmacology Branch, DTP, NCI, 2025)

System: K86415-001-R-J1-PDC complex spheroids, viability
Experiment: Anticancer human tumor K86415-001-R-J1-PDC patient-derived lung adenocarcinoma cell line growth inhibition [RAS]
Settings: for IC50: curve of first compound; for viability, T/C: stronger effect = lower value
Procedure, shortened: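 Agents were tested in combination matrices in half-log decrements from a top concentration at or near clinical Cmax (10 microM if undetermined). Targets were multi-cell spheroids of tumour lines plus HUVEC and MSC stromal cells.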

[1] = second compound 0.000949 µM, first compound 0.00316 µM
[2] = second compound 0.000949 µM, first compound 0.01 µM
[3] = second compound 0.000949 µM, first compound 0.0316 µM
[4] = second compound 0.000949 µM, first compound 0.1 µM
[5] = second compound 0.000949 µM, first compound 0.316 µM
[6] = second compound 0.000949 µM, first compound 1 µM
[7] = second compound 0.003 µM, first compound 0.00316 µM
[8] = second compound 0.003 µM, first compound 0.01 µM
[9] = second compound 0.003 µM, first compound 0.0316 µM
[10] = second compound 0.003 µM, first compound 0.1 µM
[11] = second compound 0.003 µM, first compound 0.316 µM
[12] = second compound 0.003 µM, first compound 1 µM
[13] = second compound 0.00949 µM, first compound 0.00316 µM
[14] = second compound 0.00949 µM, first compound 0.01 µM
[15] = second compound 0.00949 µM, first compound 0.0316 µM
[16] = second compound 0.00949 µM, first compound 0.1 µM
[17] = second compound 0.00949 µM, first compound 0.316 µM
[18] = second compound 0.00949 µM, first compound 1 µM
[19] = second compound 0.03 µM, first compound 0.00316 µM
[20] = second compound 0.03 µM, first compound 0.01 µM
[21] = second compound 0.03 µM, first compound 0.0316 µM
[22] = second compound 0.03 µM, first compound 0.1 µM
[23] = second compound 0.03 µM, first compound 0.316 µM
[24] = second compound 0.03 µM, first compound 1 µM
[25] = second compound 0.0949 µM, first compound 0.00316 µM
[26] = second compound 0.0949 µM, first compound 0.01 µM
[27] = second compound 0.0949 µM, first compound 0.0316 µM
[28] = second compound 0.0949 µM, first compound 0.1 µM
[29] = second compound 0.0949 µM, first compound 0.316 µM
[30] = second compound 0.0949 µM, first compound 1 µM
[31] = second compound 0.3 µM, first compound 0.00316 µM
[32] = second compound 0.3 µM, first compound 0.01 µM
[33] = second compound 0.3 µM, first compound 0.0316 µM
[34] = second compound 0.3 µM, first compound 0.1 µM
[35] = second compound 0.3 µM, first compound 0.316 µM
[36] = second compound 0.3 µM, first compound 1 µM
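Further: spheroids exposed to agents for seven days before readout.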

## C=CC(=O)Nc1cc(Nc2nccc(-c3cn(C)c4ccccc34)n2)c(OC)cc1N(C)CCN(C)C + CCn1c(-c2cccnc2C(C)OC)c2c3cc(ccc31)N1CCOC(CC(NC(=O)C(C(C)C)N(C)C(=O)C3(F)CCN(C(=O)C#CC(C)(C)N(C)C)CC3)C(=O)N3CCCC(N3)C(=O)OCC(C)(C)C2)C1
Second compound 0.000949 µM
  IC50: < 3.16 nM
Second compound 0.003 µM
  IC50: < 3.16 nM
Second compound 0.00949 µM
  IC50: < 3.16 nM
Second compound 0.03 µM
  IC50: < 3.16 nM
Second compound 0.0949 µM
  IC50: < 3.16 nM
Second compound 0.3 µM
  IC50: < 3.16 nM
[1]
  viability, T/C: 34.5%
[2]
  viability, T/C: 31.8%
[3]
  viability, T/C: 17%
[4]
  viability, T/C: 25.6%
[5]
  viability, T/C: 18.3%
[6]
  viability, T/C: 9.09%
[7]
  viability, T/C: 14.9%
[8]
  viability, T/C: 11.9%
[9]
  viability, T/C: 10.1%
[10]
  viability, T/C: 8.82%
[11]
  viability, T/C: 6.15%
[12]
  viability, T/C: 5.63%
[13]
  viability, T/C: 11.9%
[14]
  viability, T/C: 11.1%
[15]
  viability, T/C: 11.4%
[16]
  viability, T/C: 7.32%
[17]
  viability, T/C: 5.35%
[18]
  viability, T/C: 5.16%
[19]
  viability, T/C: 10.2%
[20]
  viability, T/C: 11.1%
[21]
  viability, T/C: 9.36%
[22]
  viability, T/C: 8.38%
[23]
  viability, T/C: 5.05%
[24]
  viability, T/C: 4.02%
[25]
  viability, T/C: 12.5%
[26]
  viability, T/C: 11.2%
[27]
  viability, T/C: 10.2%
[28]
  viability, T/C: 8.51%
[29]
  viability, T/C: 5.53%
[30]
  viability, T/C: 5.3%
[31]
  viability, T/C: 13.1%
[32]
  viability, T/C: 11.4%
[33]
  viability, T/C: 11.9%
[34]
  viability, T/C: 5.28%
[35]
  viability, T/C: 5.37%
[36]
  viability, T/C: 4.83%

## O=C(c1ccc(F)c(F)c1Nc1ccc(I)cc1F)N1CC(O)([C@@H]2CCCCN2)C1 + CCn1c(-c2cccnc2C(C)OC)c2c3cc(ccc31)N1CCOC(CC(NC(=O)C(C(C)C)N(C)C(=O)C3(F)CCN(C(=O)C#CC(C)(C)N(C)C)CC3)C(=O)N3CCCC(N3)C(=O)OCC(C)(C)C2)C1
Second compound 0.000949 µM
  IC50: < 3.16 nM
Second compound 0.003 µM
  IC50: < 3.16 nM
Second compound 0.00949 µM
  IC50: < 3.16 nM
Second compound 0.03 µM
  IC50: < 3.16 nM
Second compound 0.0949 µM
  IC50: < 3.16 nM
Second compound 0.3 µM
  IC50: < 3.16 nM
[1]
  viability, T/C: 33.7%
[2]
  viability, T/C: 29.1%
[3]
  viability, T/C: 11.7%
[4]
  viability, T/C: 15.2%
[5]
  viability, T/C: 6.3%
[6]
  viability, T/C: 2.8%
[7]
  viability, T/C: 11.8%
[8]
  viability, T/C: 8.85%
[9]
  viability, T/C: 7.64%
[10]
  viability, T/C: 7.02%
[11]
  viability, T/C: 4.31%
[12]
  viability, T/C: 2.26%
[13]
  viability, T/C: 11.9%
[14]
  viability, T/C: 9.16%
[15]
  viability, T/C: 7.57%
[16]
  viability, T/C: 6.25%
[17]
  viability, T/C: 3.49%
[18]
  viability, T/C: 2.55%
[19]
  viability, T/C: 10.5%
[20]
  viability, T/C: 8.81%
[21]
  viability, T/C: 12.8%
[22]
  viability, T/C: 7.27%
[23]
  viability, T/C: 2.71%
[24]
  viability, T/C: 2.49%
[25]
  viability, T/C: 11.1%
[26]
  viability, T/C: 9.53%
[27]
  viability, T/C: 8.98%
[28]
  viability, T/C: 6.47%
[29]
  viability, T/C: 2.33%
[30]
  viability, T/C: 1.78%
[31]
  viability, T/C: 12.8%
[32]
  viability, T/C: 11%
[33]
  viability, T/C: 8.71%
[34]
  viability, T/C: 5.63%
[35]
  viability, T/C: 2.69%
[36]
  viability, T/C: 2.11%
